Consider six compounds from the NIST ThermoML archive (doi:10.1021/je060479w).

For the data set the following is noted: for electrical conductivity / mass density / viscosity: 298.2 K, 101.33 kPa, Liquid; for electrical conductivity: Alternating current cell with electrodes; for mass density: Pycnometric method; for viscosity: rotary viscometer; for Normal melting temperature: Crystal; for Normal melting temperature / Glass transition temperature: DTA.

Numbers after ± are expanded uncertainties.

Consider `CC(=O)[O-].[NH3+]CCO` [2-hydroxyethylammonium acetate], for which the electrical conductivity amounted to 0.0692 ± 0.0001 S/m, the mass density came to 1120 ± 26 kg/m3, the viscosity is recorded as 640 mPa·s and the Normal melting temperature was -70.9 ± 0.5 °C. For the same compound, the Glass transition temperature was -75.8 ± 5 °C.
Regarding `NCCO.O=CO` [2-hydroxyethylammonium formate], the electrical conductivity turned out to be 0.3291 ± 0.0001 S/m, the mass density is on record as 1204 ± 26 kg/m3, the viscosity is recorded as 118 mPa·s and the Normal melting temperature is -82.2 ± 0.5 °C. Further, the Glass transition temperature was -85.9 ± 5 °C.
Take `CC(O)C(=O)[O-].[NH3+]CCO` (stereo unspecified) [2-hydroxyethylammonium lactate]: the electrical conductivity stood at 0.03775 ± 1e-05 S/m, the mass density is recorded as 1202 ± 26 kg/m3, the viscosity is on record as 1200 mPa·s and the Normal melting temperature is -58.5 ± 0.5 °C. In addition, the Glass transition temperature was -63.7 ± 5 °C.
For the compound `O=CO.OCCN(CCO)CCO` [triethanolamine formate], the Normal melting temperature came to 67.6 ± 0.5 °C.
Turning to `CC(O)C(=O)O.OCCN(CCO)CCO` [triethanolamine lactate], the electrical conductivity came out at 0.009 ± 0.001 S/m, the mass density is listed as 1222 ± 26 kg/m3, the viscosity is 455 mPa·s and the Normal melting temperature is -54.8 ± 0.5 °C. For the same compound, the Glass transition temperature was -59.4 ± 5 °C.
Consider `CC(=O)O.OCCN(CCO)CCO` [triethanolammonium acetate], for which the electrical conductivity was determined as 0.04958 ± 1e-05 S/m, the mass density worked out at 1120 ± 26 kg/m3, the viscosity is given as 342 mPa·s and the Normal melting temperature is -72.2 ± 0.5 °C. Further, the Glass transition temperature is -78.8 ± 5 °C.
